Assay results from article PMC10687119, “Quaternary Ammonium Salts of Cationic Lipopeptides with Lysine Residues — Synthesis, Antimicrobial, Hemolytic and Cytotoxic Activities” (Probiotics and Antimicrobial Proteins, 2023).
Values after ≈ are worked out from the molar mass of the structure shown. Where a SMILES comes first, the peptide text is derived from it. [ ]: non-standard residue; d: D form. The star is where a group is joined. Lys(Me3) = C[N+](C)(C)CCCC[C@H](N)C(=O)O; Stearoyl = CCCCCCCCCCCCCCCCCC(=O)*; Palmitoyl = CCCCCCCCCCCCCCCC(=O)*

Key:
K. aerogenes ATCC 13048 = type: cell-based, Klebsiella aerogenes; conditions: ATCC 13048, 18 h
Description: (§1) The Acinetobacter baumannii ATCC BAA-1605, Enterococcus faecium ATCC 700221, Klebsiella aerogenes ATCC 13048, Klebsiella pneumoniae ATCC 700603, Pseudomonas aeruginosa ATCC 9027, Staphylococcus aureus ATCC 33591, Candida glabrata ATCC 15126 strains were acquired from the American Type Culture Collection (ATCC, Manassas, USA). All the strains were stored at −80 °C in Roti-Store cryo vials (Carl Roth GmbH, Germany) and before the tests were transferred into fresh Mueller–Hinton broth (MHB, Becton Dickinson, Poland) for bacteria or RPMI-1640 (Sigma-Aldrich, Germany) for fungi and incubated for 24 h at 37 °C. Then, the cultures were cultured on the Mueller–Hinton agar (BioMaxima, Poland) or Sabouraud dextrose agar (SDA, BioMaxima) plates, respectively, and incubated as just mentioned. For microbiological assays, a minimum of three to five well-isolated colonies of the same morphological type were carefully picked from the agar cultures. These colonies were transferred with sterile loop into fresh microbiological medium and incubated with shaking (100 rpm) at 37 °C until they reached logarithmic phase of growth. Cell densities for all assays were adjusted through spectrophotometric measurements (Multiskan GO Microplate Spectrophotometer, Thermo Fisher Scientific, Finland) at 600 and 530 nm for bacteria and fungi, respectively.
(§2) The MICs were determined by broth microdilution method according to the Clinical and Laboratory Standard Institute guidelines. For this purpose, initial inoculums of bacteria (5 × 10^5 CFU/mL) in MHB and yeasts (2 × 10^3 CFU/mL) in RPMI-1640 with 2% D-glucose were exposed to the ranging concentration of lipopeptides (1–512 μg/mL) and incubated at 37 °C for 18 h and 24 h, respectively. The experiments were conducted on 96-well microtiter polystyrene plates (Kartell, Italy). The growth was assessed visually after incubation and the MIC was assumed as the lowest peptide concentration at which a noticeable growth of microorganisms was inhibited. Benzalkonium chloride (Sigma-Aldrich, Germany) was used as reference compound. All experiments were conducted in triplicate.

P. aeruginosa ATCC 9027 = type: cell-based, Pseudomonas aeruginosa; conditions: ATCC 9027, 18 h
Description: as §1, §2

[1] = system: K. pneumoniae ATCC 700603; type: cell-based, Klebsiella pneumoniae; conditions: ATCC 700603, 18 h
Description: as §1, §2

[2] = system: human red blood cells (RBCs); type: cell-based; conditions: red cells of human
Description: The hemolysis assay was conducted using a procedure described previously. For this purpose, human red blood cells (RBCs) isolated from K2EDTA Single Donor Human Whole blood (Innovative Research, Inc, MI, USA) were rinsed with Phosphate-buffer saline (PBS, pH 7.4±0.05, composition - KCl 2.7 mM, NaCl 140 mM, phosphate 10mM; AppliChem GmbH, Germany) by centrifugation for 10 min at 800 × g. This process was repeated 3 times and the RBCs were resuspended in PBS. Then, the stock solution of RBCs was added to the serial dilution of lipopeptides on 96-well polystyrene plates to reach a final volume of 100 μL with a 4% concentration of erythrocytes (v/v) and a concentration range of 1-512 μg/mL of tested compounds. The control wells for 0% and 100% hemolysis consisted of RBCs suspended in PBS and 1% of Triton X-100 (Sigma-Aldrich, Germany), respectively. Benzalkonium chloride (Sigma-Aldrich, Germany) was used as reference compound. Subsequently, the plates were incubated for 60 min at 37 °C and then centrifuged at 800 × g for 10 min at 4 °C (Sorvall ST […] Centrifuge, Thermo Scientific). The supernatant was carefully […] to new microtiter plates. The release of hemoglobin was monitored absorbance measurements at 540 nm (MultiskanTM GO Microplate Spectrophotometer, Thermo Scientific). All experiments were conducted in triplicate. HC50 was calculated using an ic50.tk tool.

C. glabrata ATCC 15126 = type: cell-based, Candida glabrata; conditions: ATCC 15126, 24 h
Description: as §1, §2

[3] = system: A. baumannii ATCC BAA 1605; type: cell-based, Acinetobacter baumannii; conditions: ATCC BAA 1605, 18 h
Description: as §1, §2

[4] = system: human keratinocyte cell line (HaCaT); type: cell-based; conditions: 24 h
Description: The immortalized human keratinocyte cell line (HaCaT), obtained from CLS (Cell Line Service, Germany) was cultured in DMEM-high glucose (Dulbecco’s Modified Eagle Medium) supplemented with 10% fetal bovine serum, 2 mM L-glutamine, 100 U/mL penicillin and 100 μg/mL streptomycin (Sigma-Aldrich; Merck KGaA) at 37 °C in a humidified atmosphere with 5% CO2. Cells were trypsinized, and the medium was renewed 2–3 times per week. The cytotoxicity of compounds was assessed by colorimetric CellTilter 96® Aqueous One Solution Cell Proliferation Assay (Promega, USA), containing a tetrazolium compound according to the manufacturer’s instructions. In brief, 7 × 10^3 HaCaT cells per well were plated on 96-well plates and incubated per night to adhere to the cultured dishes. After that time, different concentrations of the tested compounds ranging from 512 to 1 μg/mL were applied to the wells. Every compound was medium-soluble at 37 °C; thus, the non-treated cells were negative control. Serial dilutions of the tested compounds were always prepared before use. Cells were incubated with drugs for 24 h, and then, 20 μL of the CellTiter 96®AqueousOne Solution Reagent was added to each well containing treated cells in 100 µl of culture medium. After 4 h of incubation at 37 °C, the absorbance at 490 nm was recorded using a microplate reader (Epoch, BioTek Instruments, USA). The quantity of formazan product as measured by the amount of 490 nm absorbance is directly proportional to the number of living cells in culture. Benzalkonium chloride (Sigma-Aldrich, Germany) was used as reference compound. At least three independent experiments with two replicates were conducted for each concentration of a compound, and the IC50 values were calculated using GraphPad Prism 8 software.

E. faecium ATCC 700221 = type: cell-based, Enterococcus faecium; conditions: ATCC 700221, 18 h
Description: as §1, §2

S. aureus ATCC 33591 = type: cell-based, Staphylococcus aureus; conditions: ATCC 33591, 18 h
Description: as §1, §2

| SMILES | MIC (K. aerogenes ATCC 13048) [µg/mL] | MIC (P. aeruginosa ATCC 9027) [µg/mL] | MIC [1] [µg/mL] | HC50 [2] [µg/mL] | MIC (C. glabrata ATCC 15126) [µg/mL] | MIC [3] [µg/mL] | MIC (E. faecium ATCC 700221) [µg/mL] | MIC (S. aureus ATCC 33591) [µg/mL] | IC50 [4] [µg/mL] |
| --- | --- | --- | --- | --- | --- | --- | --- | --- | --- |
| CCCCCCCCCCCCCC(=O)N[C@@H](CCCCN)C(=O)N[C@@H](CCCCN)C(N)=O [Peptide 2M, C14-KK-NH2] | 512 (≈ 1060 µM) | 128 (≈ 265 µM) | >512 | 345.21 ± 12.80 | 256 (≈ 529 µM) | 512 (≈ 1060 µM) | 32 (≈ 66.2 µM) | 16 (≈ 33.1 µM) | 32.49 ± 4.84 (≈ 67.2 µM) |
| CCCCCCCCCCCCCCCC(=O)N[C@@H](CCCC[N+](C)(C)C)C(N)=O [Peptide 1Pq, C16-K(Me3)^+-NH2] | 256 | >512 | 512 | 32.21 ± 1.97 | 8 | 64 | 16 | 16 | 19.25 ± 9.34 |
| CCCCCCCCCCCCCC(=O)N[C@@H](CCCC[N+](C)(C)C)C(=O)N[C@@H](CCCC[N+](C)(C)C)C(N)=O [Peptide 2Mq, C14-K(Me3)^+K(Me3)^+-NH2] | >512 | >512 | >512 | >512 | 512 | >512 | 128 | 128 | 258.90 ± 35.07 |
| CCCCCCCCCCCCCCCC(=O)N[C@@H](CCCC[N+](C)(C)C)C(=O)N[C@@H](CCCC[N+](C)(C)C)C(N)=O [Peptide 2Pq, C16-K(Me3)^+K(Me3)^+-NH2] | 512 | 512 | 512 | 133.32 ± 6.27 | 64 | 128 | 16 | 16 | 99.62 ± 9.65 |
| CCCCCCCCCCCCCCCCCC(=O)N[C@@H](CCCC[N+](C)(C)C)C(=O)N[C@@H](CCCC[N+](C)(C)C)C(N)=O [Peptide 2Sq, C18-K(Me3)^+K(Me3)^+-NH2] | 64 | >512 | 128 | 22.42 ± 0.98 | 16 | 64 | 16 | 8 | 78.57 ± 5.49 |
| CCCCCCCCCCCCCC(=O)N[C@@H](CCCCN)C(N)=O [Peptide 1M, C14-K-NH2] | >512 | >512 | >512 | 477.61 ± 28.02 | >512 | >512 | 16 (≈ 45 µM) | 16 (≈ 45 µM) | 4.33 ± 1.12 (≈ 12.2 µM) |

Second part, led by results:

| MIC (K. aerogenes ATCC 13048) [µg/mL] | MIC (P. aeruginosa ATCC 9027) [µg/mL] | MIC [1] [µg/mL] | HC50 [2] [µg/mL] | MIC (C. glabrata ATCC 15126) [µg/mL] | MIC [3] [µg/mL] | MIC (E. faecium ATCC 700221) [µg/mL] | MIC (S. aureus ATCC 33591) [µg/mL] | SMILES | IC50 [4] [µg/mL] |
| --- | --- | --- | --- | --- | --- | --- | --- | --- | --- |
| 64 | 512 | 256 | 385.50 ± 71.51 | 128 | 128 | 16 | 64 | CCCCCCCCCCCCCCCCCC(=O)N[C@@H](CCCC[N+](C)(C)C)C(=O)N[C@@H](CCCC[N+](C)(C)C)C(=O)N[C@@H](CCCC[N+](C)(C)C)C(N)=O [Peptide 3Sq, C18-K(Me3)^+K(Me3)^+K(Me3)^+-NH2] | 474.64 ± 29.06 |
| 64 | 512 | 256 | >512 | 512 | 256 | 16 | 64 | CCCCCCCCCCCCCCCCCC(=O)N[C@@H](CCCC[N+](C)(C)C)C(=O)N[C@@H](CCCC[N+](C)(C)C)C(=O)N[C@@H](CCCC[N+](C)(C)C)C(=O)N[C@@H](CCCC[N+](C)(C)C)C(N)=O [Peptide 4Sq, C18-K(Me3)^+K(Me3)^+K(Me3)^+K(Me3)^+-NH2] (Stearoyl-[Lys(Me3)][Lys(Me3)][Lys(Me3)][Lys(Me3)]-NH2) | >512 |
| 512 | >512 | >512 | >512 | >512 | >512 | 32 | 256 | CCCCCCCCCCCCCCCC(=O)N[C@@H](CCCC[N+](C)(C)C)C(=O)N[C@@H](CCCC[N+](C)(C)C)C(=O)N[C@@H](CCCC[N+](C)(C)C)C(N)=O [Peptide 3Pq, C16-K(Me3)^+K(Me3)^+K(Me3)^+-NH2] | >512 |
| >512 | >512 | >512 | >512 | >512 | >512 | 256 | >512 | CCCCCCCCCCCCCC(=O)N[C@@H](CCCC[N+](C)(C)C)C(=O)N[C@@H](CCCC[N+](C)(C)C)C(=O)N[C@@H](CCCC[N+](C)(C)C)C(N)=O [Peptide 3Mq, C14-K(Me3)^+K(Me3)^+K(Me3)^+-NH2] | >512 |
| 512 | >512 | >512 | >512 | >512 | >512 | 32 | 512 | CCCCCCCCCCCCCCCC(=O)N[C@@H](CCCC[N+](C)(C)C)C(=O)N[C@@H](CCCC[N+](C)(C)C)C(=O)N[C@@H](CCCC[N+](C)(C)C)C(=O)N[C@@H](CCCC[N+](C)(C)C)C(N)=O [Peptide 4Pq, C16-K(Me3)^+K(Me3)^+K(Me3)^+K(Me3)^+-NH2] (Palmitoyl-[Lys(Me3)][Lys(Me3)][Lys(Me3)][Lys(Me3)]-NH2) | >512 |
